We go through one compound from US7935670B2, “Hepatitis C virus inhibitors” (Bristol-Myers Squibb Company, priority 2006, dated 2011).

In test [1] the test system is HCV replicon in HUH-7 cells. Nature of the test: HCV replicon FRET assay. The format is cell-based, HCV strain 1b. The following applies: Hepatitis C virus. The source says: An HCV replicon whole cell system was established as described by Lohmann V, Korner F, Koch J, Herian U, Theilmann L, Bartenschlager R., Science 285(5424): 110-3 (1999). This system enabled us to evaluate the effects of our HCV Protease compounds on HCV RNA replication. Briefly, using the HCV strain 1b sequence described in the Lohmann paper (Assession number: AJ238799), an HCV cDNA was synthesized by Operon Technologies, Inc. (Alameda, Calif.), and the full-length replicon was then assembled in plasmid pGem9zf(+) (Promega, Madison, Wis.) using standard molecular biology techniques. The replicon consists of (i) the HCV 5′ UTR fused to the first 12 amino acids of the capsid protein, (ii) the neomycin phosphotransferase gene (neo), (iii) the IRES from encephalomyocarditis virus (EMCV), and (iv) HCV NS3 to NS5B genes and the HCV 3′ UTR. Plasmid DNAs were linearized with ScaI and RNA transcripts were synthesized in vitro using the T7 MegaScript transcription kit (Ambion, Austin, Tex.) according to manufacturer's directions. In vitro transcripts of the cDNA were transfected into the human hepatoma cell line, HUH-7. […] Resulting cell lines were characterized for positive and negative strand RNA production and protein production over time.
The HCV replicon FRET assay was developed to monitor the inhibitory effects of compounds described in the disclosure on HCV viral replication. HUH-7 cells, constitutively expressing the HCV replicon, were grown in Dulbecco's Modified Eagle Media (DMEM) (Gibco-BRL) containing 10% Fetal calf serum (FCS) (Sigma) and 1 mg/ml G418 (Gibco-BRL). Cells were seeded the night before (1.5×10^4 cells/well) in 96-well tissue-culture sterile plates. Compound and no compound controls were prepared in DMEM containing 4% FCS, 1:100 Penicillin/Streptomysin (Gibco-BRL), 1:100 L-glutamine and 5% DMSO in the dilution plate (0.5% DMSO final concentration in the assay). Compound/DMSO mixes were added to the cells and incubated for 4 days at 37° C. After 4 days, cells were first assessed for cytotoxicity using alamar Blue (Trek Diagnotstic Systems) for a CC50 reading. The toxicity of compound (CC50) was determined by adding 1/10th volume of alamar Blue to the media incubating the cells. After 4 h, the fluorescence signal from each well was read, with an excitation wavelength at 530 nm and an emission wavelength of 580 nm, using the Cytofluor Series 4000 (Perspective Biosystems). Plates were then rinsed thoroughly with Phosphate-Buffered Saline (PBS) (3 times 150 μl). The cells were lysed with 25 μl of a lysis assay reagent containing an HCV protease substrate (5× cell Luciferase cell culture lysis reagent (Promega #E153A) diluted to 1× with distilled water, NaCl added to 150 mM final, the FRET peptide substrate (as described for the enzyme assay above) diluted to 10 μM final from a 2 mM stock in 100% DMSO. The plate was then placed into the Cytofluor 4000 instrument which had been set to 340 nm excitation/490 nm emission, automatic mode for 21 cycles and the plate read in a kinetic mode. EC50 determinations were carried out as described for the IC50 determinations.
In general terms: Replicon systems follow genome replication, usually without infectious particles.

Test [2] has as its system HCV replicon (Renilla luciferase reporter) in HUH-7 cells. Kind of test: HCV replicon luciferase reporter assay. The format is cell-based, HCV strain 1b. The following applies: Huh-7, 96 h, 4 days.
A further test has as its target T1, human liver cathepsin B (Homo sapiens, UniProt P07858).
T1 construct: purchased Sigma; host or cells: human liver (by name)
Kind of test: Specificity assay, cathepsin B. The format is biochemical. The following applies: 2 h enzyme-inhibitor pre-incubation. The method, then:
The specificities of compounds of the present disclosure were determined against a variety of serine proteases: human neutrophil elastase (HNE), porcine pancreatic elastase (PPE) and human pancreatic chymotrypsin and one cysteine protease: human liver cathepsin B. In all cases a 96-well plate format protocol using colorimetric p-nitroaniline (pNA) substrate specific for each enzyme was used as described previously (PCT Patent Application No. WO 00/09543) with some modifications to the serine protease assays. All enzymes were purchased from Sigma while the substrates were from Bachem.
Each assay included a 2 h enzyme-inhibitor pre-incubation at room temperature followed by addition of substrate and hydrolysis to ˜30% conversion as measured on a Spectramax Pro microplate reader. Compound concentrations varied from 100 to 0.4 μM depending on their potency.
100 mM NaHPO4 (Sodium Hydrogen Phosphate) pH 6, 0.1 mM EDTA, 3% DMSO, 1 mM TCEP (Tris(2-carboxyethyl)phosphine hydrochloride), 0.01% Tween-20, 30 μM Z-FR-pNA and 5 nM Cathepsin B (enzyme stock activated in buffer containing 20 mM TCEP before use).
The percentage of inhibition was calculated using the formula: [1−((UVinh−UVblank)/(UVctl−UVblank))]×100
A non-linear curve fit was applied to the inhibition-concentration data, and the 50% effective concentration (IC50) was calculated by the use of Excel Xl-fit software.

pEC50, pIC50: −log10 of the molar value. Read-outs that look alike come from different tables or passages of the source.

As for `C=C[C@@H]1C[C@]1(NC(=O)[C@@H]1C[C@@H](OC(=O)c2ccccc2)CN1C(=O)[C@@H](NC(=O)OC(C)(C)C)C(C)(C)C)C(=O)NS(=O)(=O)C1CC1` [Compound 1], the negative-log EC50 (pEC50) (commonly the EC50 on a negative log10 scale, so that one unit is a factor of ten) in test [1] (96 h, HUH-7 replicon cells, 4 days, read-out: EC50 in the replicon FRET assay) is 6.32; in test [1] (Huh-7, read-out: Activity Range (EC50)), 6.00 to 6.70; in test [2] it was 7.29. In addition, on human liver cathepsin B, the negative logarithm of the IC50 (pIC50) (usually the IC50 on a negative log10 scale, so that one unit is a factor of ten) is < 4.30.
